Data: ChEMBL document CHEMBL1138963, “Design, synthesis, and pharmacological evaluation of R/S-3,4-dihydro-2,2-dimethyl- 6-halo-4-(phenylaminocarbonylamino)-2H-1-benzopyrans: toward tissue-selective pancreatic beta-cell KATP channel openers structurally related to (+/-)-cromakalim” (J Med Chem, 2006)
pEC50, pIC50: −log10 of the molar value.

What was measured:
Pancreatic beta cell [1] = experiment: Residual insulin release in Wistar rat pancreatic islet beta cells in presence of glucose at 10 uM; assay type: functional
Rattus norvegicus = species: Rattus norvegicus; experiment: Myorelaxant activity against KCL-induced contraction of Wistar rat aortic rings; assay type: functional; details: Aorta
Pancreatic beta cell [2] = experiment: Residual insulin release in Wistar rat pancreatic islet beta cells in presence of glucose at 1 uM; assay type: functional
Pancreatic beta cell [3] = experiment: Inhibition of insulin release in Wistar rat pancreatic islet beta cells; assay type: functional, cell-based
Pancreatic beta cell [4] = experiment: Selectivity ratio, IC50 for Wistar rat pancreatic islet beta cells/EC50 for aortic rings; assay type: functional

Row | SMILES | Activity (Pancreatic beta cell [1]) [%] | pEC50 (Rattus norvegicus) | Activity (Pancreatic beta cell [2]) [%] | pIC50 (Pancreatic beta cell [3]) | Selectivity ratio (Pancreatic beta cell [4])
1 | COc1ccc(NC(=O)NC2CC(C)(C)Oc3ccc(F)cc32)cc1 (stereo not drawn) | 89 | 4.81 | – | – | –
2 | COc1ccccc1NC(=O)NC1CC(C)(C)Oc2ccc(F)cc21 (stereo not drawn) | 84.4 | < 5.00 | – | – | –
3 | Cc1cccc(NC(=O)NC2CC(C)(C)Oc3ccc(Cl)cc32)c1 (stereo not drawn) | 65.8 | < 5.00 | – | – | –
4 | CC1(C)CC(NC(=O)Nc2ccccc2Cl)c2cc(Br)ccc2O1 (stereo not drawn) | 41.8 | < 4.52 | – | – | –
5 | Cc1ccc(NC(=O)NC2CC(C)(C)Oc3ccc(Br)cc32)cc1 (stereo not drawn) | 72.9 | < 4.52 | – | – | –
6 | CC1(C)CC(NC(=O)Nc2ccccc2)c2cc(Br)ccc2O1 (stereo not drawn) | 75.9 | 5.64 | – | – | –
7 | Cc1ccccc1NC(=O)NC1CC(C)(C)Oc2ccc(Cl)cc21 (stereo not drawn) | 85 | < 5.00 | – | – | –
8 | Cc1ccccc1NC(=O)NC1CC(C)(C)Oc2ccc(F)cc21 (stereo not drawn) | 79 | < 4.52 | – | – | –
9 | CC1(C)CC(NC(=O)Nc2ccccc2)c2cc(Cl)ccc2O1 (stereo not drawn) | 87.7 | 5.11 | – | – | –
10 | Cc1ccc(NC(=O)NC2CC(C)(C)Oc3ccc(Cl)cc32)cc1 (stereo not drawn) | 69.5 | < 4.52 | – | – | –
11 | CC1(C)CC(NC(=O)Nc2ccccc2Cl)c2cc(F)ccc2O1 (stereo not drawn) | 51.4 | < 4.52 | – | – | –
12 | COc1ccc(NC(=O)NC2CC(C)(C)Oc3ccc(Cl)cc32)cc1 (stereo not drawn) | 79.3 | < 4.52 | – | – | –
13 | COc1cccc(NC(=O)NC2CC(C)(C)Oc3ccc(F)cc32)c1 (stereo not drawn) | 66.6 | < 5.00 | – | – | –
14 | COc1ccccc1NC(=O)NC1CC(C)(C)Oc2ccc(Br)cc21 (stereo not drawn) | 72.8 | < 5.00 | – | – | –
15 | COc1ccc(NC(=O)NC2CC(C)(C)Oc3ccc(Br)cc32)cc1 (stereo not drawn) | 79.2 | < 5.00 | – | – | –
16 | CC1(C)CC(NC(=O)Nc2ccccc2)c2cc(F)ccc2O1 (stereo not drawn) | 83.8 | 4.77 | – | – | –
17 | Cc1cccc(NC(=O)NC2CC(C)(C)Oc3ccc(Br)cc32)c1 (stereo not drawn) | 63.4 | < 5.00 | – | – | –
18 | Cc1cccc(NC(=O)NC2CC(C)(C)Oc3ccc(F)cc32)c1 (stereo not drawn) | 75.2 | < 4.52 | – | – | –
19 | CC1(C)CC(NC(=O)Nc2ccc(Cl)cc2)c2cc(F)ccc2O1 (stereo not drawn) | 22.8 | < 4.52 | 91.4 | 5.44 | <0.12
20 | CC1(C)CC(NC(=O)Nc2cccc(Cl)c2)c2cc(Br)ccc2O1 (stereo not drawn) | 28.6 | < 4.52 | 91.5 | 5.39 | <0.14
21 | CC1(C)CC(NC(=O)Nc2cccc(Cl)c2)c2cc(F)ccc2O1 (stereo not drawn) | 28 | < 3.52 | 86 | 5.44 | <0.01
22 | COc1cccc(NC(=O)NC2CC(C)(C)Oc3ccc(Cl)cc32)c1 (stereo not drawn) | 84 | < 5.00 | – | – | –
23 | CC1(C)Oc2ccc(C#N)cc2C(N2CCCC2=O)C1O (racemic) [CROMAKALIM] | 94.4 | 6.89 | 95.3 | < 4.00 | >769.23
24 | Cc1ccccc1NC(=O)NC1CC(C)(C)Oc2ccc(Br)cc21 (stereo not drawn) | 79.5 | < 4.52 | – | – | –
25 | CC1(C)CC(NC(=O)Nc2ccccc2Cl)c2cc(Cl)ccc2O1 (stereo not drawn) | 40.3 | < 3.52 | – | – | –
26 | CC1(C)CC(NC(=O)Nc2ccc(Cl)cc2)c2cc(Br)ccc2O1 (stereo not drawn) | 25.7 | < 3.52 | 92.2 | 5.41 | <0.01
27 | COc1cccc(NC(=O)NC2CC(C)(C)Oc3ccc(Br)cc32)c1 (stereo not drawn) | 73.5 | < 5.00 | – | – | –
28 | COc1ccccc1NC(=O)NC1CC(C)(C)Oc2ccc(Cl)cc21 (stereo not drawn) | 94.6 | < 5.00 | – | – | –
29 | Cc1ccc(NC(=O)NC2CC(C)(C)Oc3ccc(F)cc32)cc1 (stereo not drawn) | 70.6 | < 4.52 | – | – | –
